According to ChEMBL document CHEMBL1201862, “PubChem BioAssay data set” (2004):
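Dose response: 5 concentrations. Exposure: 48 h. Format: 96-well plates. Endpoint: linear interpolation; highest concentration if not reached. GI50 = concentration required for 50% inhibition of growth.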 The source made the active and inactive calls. Rule as the data show it: active = GI50 up to about 1.1 µM and inactive = higher.

Columns and labels:
Experiment in all cases: growth of human tumour cells (NCI), 48 h
HOP-62 = test system: HOP-62
TK-10 = test system: TK-10
SW-620 = test system: SW-620
Malme-3M = test system: Malme-3M
MOLT-4 = test system: MOLT-4
NCI-H23 = test system: NCI-H23
HT-29 = test system: HT-29
RXF 393 = test system: RXF 393
EKVX = test system: EKVX
HCT-116 = test system: HCT-116
SF-539 = test system: SF-539
SN12C = test system: SN12C
SF-268 = test system: SF-268
HOP-92 = test system: HOP-92
NCI-H522 = test system: NCI-H522
SF-295 = test system: SF-295
HCT-15 = test system: HCT-15
NCI-H460 = test system: NCI-H460
SNB-75 = test system: SNB-75
LOX IMVI = test system: LOX IMVI

Structure (SMILES) | GI50 (HOP-62) | GI50 (TK-10) | GI50 (SW-620) | GI50 (Malme-3M) | GI50 (MOLT-4) | GI50 (NCI-H23) | GI50 (HT-29) | GI50 (RXF 393) | GI50 (EKVX) | GI50 (HCT-116) | GI50 (SF-539) | GI50 (SN12C) | GI50 (SF-268) | GI50 (HOP-92) | GI50 (NCI-H522) | GI50 (SF-295) | GI50 (HCT-15) [µM] | GI50 (NCI-H460) | GI50 (SNB-75) | GI50 (LOX IMVI)
Oc1cc(N2CCCC2)ccc1/C=N/N1C(=S)N(c2ccccc2)C(=N\c2ccccc2)/C1=N/c1ccccc1 | 35.2 µM (inactive) | 75 µM (inactive) | 87.9 µM (inactive) | > 100 µM (inactive) | > 100 µM (inactive) | 87.7 µM (inactive) | > 100 µM (inactive) | 14.2 µM (inactive) | > 100 µM (inactive) | 44.6 µM (inactive) | > 100 µM (inactive) | > 100 µM (inactive) | > 100 µM (inactive) | 63.2 µM (inactive) | 23.4 µM (inactive) | 94.4 µM (inactive) | > 100 | > 100 µM (inactive) |  | 
COC(=O)C1CCN(C(=O)OC(C)(C)C)CC1 | > 100 µM (inactive) | > 100 µM (inactive) | > 100 µM (inactive) | > 100 µM (inactive) | > 100 µM (inactive) | > 100 µM (inactive) | > 100 µM (inactive) |  | > 100 µM (inactive) | > 100 µM (inactive) | > 100 µM (inactive) | > 100 µM (inactive) | > 100 µM (inactive) | > 100 µM (inactive) | > 100 µM (inactive) | > 100 µM (inactive) | > 100 | > 100 µM (inactive) | > 100 µM (inactive) | > 100 µM (inactive)
Sc1nnc(COc2ccc(Cl)cc2)o1 | > 100 µM (inactive) | > 100 µM (inactive) | 15.5 µM (inactive) | > 100 µM (inactive) | > 100 µM (inactive) | > 100 µM (inactive) | > 100 µM (inactive) |  | > 100 µM (inactive) | > 100 µM (inactive) | > 100 µM (inactive) | > 100 µM (inactive) | > 100 µM (inactive) | 84.3 µM (inactive) | > 100 µM (inactive) | > 100 µM (inactive) | 31.2 | > 100 µM (inactive) | > 100 µM (inactive) | 
Cc1cn(CCCCCCOC(=O)NC(CCCNC(N)=O)C(=O)O)c(=O)[nH]c1=O (configuration not stated) | > 100 µM (inactive) | > 100 µM (inactive) | > 100 µM (inactive) |  | > 100 µM (inactive) | > 100 µM (inactive) | > 100 µM (inactive) | > 100 µM (inactive) | > 100 µM (inactive) | > 100 µM (inactive) | > 100 µM (inactive) | > 100 µM (inactive) | > 100 µM (inactive) | > 100 µM (inactive) |  | > 100 µM (inactive) | > 100 | > 100 µM (inactive) | > 100 µM (inactive) | > 100 µM (inactive)
CCOC(=O)c1nc2ccc(C(F)(F)F)cc2nc1Oc1cc(OC)c(OC)c(OC)c1 | 25.6 µM (inactive) | 75.3 µM (inactive) | 47.8 µM (inactive) | 35.3 µM (inactive) | > 100 µM (inactive) |  | 78.2 µM (inactive) | 28.7 µM (inactive) | 35.3 µM (inactive) | 50.9 µM (inactive) | 62.2 µM (inactive) | > 100 µM (inactive) | 35.6 µM (inactive) | 14.5 µM (inactive) |  | 97.3 µM (inactive) | 72.9 | 42.5 µM (inactive) | 19.5 µM (inactive) | > 100 µM (inactive)
CCC(C)(C)NC1=C(NC(C)=O)C(=O)c2ccccc2C1=O | > 75 µM (inactive) | > 75 µM (inactive) | 35.1 µM (inactive) | 28.7 µM (inactive) | 13.9 µM (inactive) | 18.9 µM (inactive) | > 75 µM (inactive) | 25 µM (inactive) | > 75 µM (inactive) | 17.7 µM (inactive) | 24.4 µM (inactive) | > 75 µM (inactive) | > 75 µM (inactive) |  | 10.2 µM (inactive) | > 75 µM (inactive) | 32.9 | 39.5 µM (inactive) | > 75 µM (inactive) | 29.8 µM (inactive)
Cn1c(=O)nc2n(-c3ccc(O)cc3)c3ccccc3nc-2c1=O | 55.8 µM (inactive) | > 100 µM (inactive) | 76.4 µM (inactive) | 18.9 µM (inactive) | 54.5 µM (inactive) | 23.3 µM (inactive) | > 100 µM (inactive) |  | > 100 µM (inactive) | > 100 µM (inactive) | 5.56 µM (inactive) | > 100 µM (inactive) | 23.2 µM (inactive) | 26.4 µM (inactive) | > 100 µM (inactive) | > 100 µM (inactive) | > 100 | 11 µM (inactive) | 9.23 µM (inactive) | 
COc1cc(-c2cc(O)c3ccccc3n2)cc(OC)c1OC | > 75 µM (inactive) | > 75 µM (inactive) | > 75 µM (inactive) | > 75 µM (inactive) | > 75 µM (inactive) | > 75 µM (inactive) | > 75 µM (inactive) | > 75 µM (inactive) | > 75 µM (inactive) | > 75 µM (inactive) | > 75 µM (inactive) | > 75 µM (inactive) | > 75 µM (inactive) |  | > 75 µM (inactive) | > 75 µM (inactive) | > 75 | > 75 µM (inactive) | 50.5 µM (inactive) | > 75 µM (inactive)
